From patent US20250009743A1, “METHODS OF TREATING CANCERS USING STING AGONISTS” (Dana-Farber Cancer Institute, Inc., priority 2021, published 2025)

Tests used:
orthotopic BP tumors = test: BP (Brca1−/− Trp53−/−) orthotopic tumor growth in FVB mice; assay type: in vivo, mouse
Experimental: Primary mammary tumor cells for orthotopic injection were resuspended in serum-free DMEM containing 40% matrigel (Corning). […] Tumor growth was examined by measuring the greatest longitudinal diameter (length) and the greatest transverse diameter (width) with digital calipers, and tumor volume was calculated by use of the modified ellipsoid formula (0.52×length×width2). Tumors were measured 2-3 times a week. All tumor measurements within single cohorts were performed by the same researcher. Tumor-bearing mice were randomized prior to start of treatment. Drug treatments were started when mean tumor volumes approximated 50-100 mm3. Mice were euthanized by CO2 inhalation when tumor volumes met humane endpoints described in the IACUC (20 mm diameter) protocols or upon severe health deterioration.
For intratumoral injection (i.t.), 250 μg DMXAA (approximately 10 mg/kg body weight) was administered once per week for 3 doses. For i.p. injections, DMXAA was administered at a dose of 10 mg/kg body weight once weekly and terminated if tumor size exceeded 600 mm3. […] Anti-mouse CSF1R antibody (CS7, Eli Lilly) was dosed at 40 mg/kg via i.p. every 3 days.

[1] = tested on: mouse bone marrow-derived macrophages (BMDMs); test: Polarization of mouse BMDMs / tumor cell-educated macrophages (flow cytometry, RNA-seq, morphology); assay type: cell-based
Experimental: Mouse macrophages and dendritic cells (DCs) were derived from the bone marrow (BM) of FVB/NJ mice by modifying protocols described in (Weischenfeldt J, Porse B. CSH Protoc 2008; Guo X, et al. J Immunol Methods 2016; 432:24-9). For generation of BM-derived macrophages (BMDMs), BM cells were seeded on ultra-low attachment plates (Corning) or petri dishes (Falcon) and cultured in DMEM supplemented with 10 ng/ml M-CSF (BioLegend, #576404), 10% FBS and 100 μg/mL penicillin-streptomycin. Fresh DMEM with 10 ng/ml M-CSF was added after 3 days, and cells were incubated for another 4 days before harvesting adherent cells (BMDMs). For DC differentiation, BM cells were seeded on tissue culture dishes (Corning) and cultured in RPMI 1640 supplemented with 20 ng/mL GM-CSF (Stem Cell Technologies, #78017), 10% FBS and 100 μg/mL penicillin-streptomycin. Fresh RPMI 1640 with 20 ng/mL GM13 CSF was added after 3 days, and non-adherent cells (DCs) were harvested after another 4 days. For preparation of tumor cell-conditioned media (CM), tumor cells were grown to 60% of confluence, washed twice with PBS, and then incubated with fresh DMEM for two days. CM were then harvested and centrifuged to collect the supernatant.
For flow cytometry analyses of tumor and TDLN samples, single-cell suspensions were obtained as described above (Tissue Digestion). Cells were stained in cold FACS buffer (PBS containing 0.2% BSA and 5 mM EDTA) with LIVE/DEAD Fixable Aqua Dead Cell Stain (Thermo Fisher) for 30 min on ice, followed by blocking with anti-CD16/32 (BioLegend) for 20 min on ice. Cells were then incubated in FACS buffer for 30 min on ice with antibodies specific to CD45 (clone 30-F11, BioLegend), TCR β chain (clone H57-597, BioLegend), CD38 (clone 145-2C11, BioLegend), CD4 (clone RM4-5, BioLegend), CD8a (clone 53-6.7, BioLegend), PD-1 (clone 29F.1A12, BioLegend), CD44 (clone IM7, BioLegend), CD62L (clone MEL-14, BioLegend), IFN-γ (clone XMG1.2, BioLegend), TNF-α (clone MP6-XT22, BioLegend), Granzyme B (clone NGZB, eBioscience), CD11c (clone N418, BioLegend), I-A/I-E (clone M5/114.15.2, BioLegend), CD80 (clone 16-10A1, BioLegend), CD86 (clone GL-1, BioLegend), CD103 (clone 2E7, BioLegend), CD11b (M1/70, BioLegend), F4/80 (clone BM8, BioLegend), phospho-TBK1 (Ser172) (clone D52C2, Cell Signaling Tech.) or phospho-IRF-3 (Ser396) (clone D601M, Cell Signaling Tech.). For intracellular staining, Foxp3/Transcription Factor Staining Buffer Set (eBioscience, #00-5523-00) was used for fixation and permeabilization. For cytokine analysis, cells were stimulated with Leukocyte Activation Cocktail with protein transport inhibitor Brefeldin A (BD Biosciences, #550583) at 37° C. for 4 hours prior to the staining. Analysis of ϵ-HA2X (Ser139) was performed according to manufacturer's instructions. Briefly, ice-cold 70% ethanol (Decon) was added dropwise to the cell pellet while vortexing. Cells were then incubated at −20° C. for 1 hour and washed three times with cold staining buffer. For the staining, 5 μL p-HA2X antibody (clone 2F3, BioLegend) was added to approximately 1×10^6 cells in 100 μL staining buffer and incubated at 4° C. for 30 min. For Annexin V and 7-AAD staining, cells were detached with accutase (Sigma, #A6964). The detached cells (from culture medium and accutase treatment) were washed twice with cold PBS, and then incubated with 5 μL FITC Annexin V (BioLegend, #640906) and 10 μL 7-AAD (BioLegend, #420404) in 100 μL Annexin V binding buffer (BioLegend, #422201) at room temperature for 15 min. Flow cytometry was performed on an LSR Fortessa HTS analyzer (BD Biosciences). All data were analyzed using FlowJo software.
For in vitro co-culture of tumor cells with macrophages, 2×10^5 tumor cells per well were co-cultured with macrophages at a ratio of 1:1 (BP cells: mouse BMDMs) or 1:1.5 (MDA-MB-436 cells: THP-1 macrophages) in 6-well plates with indicated drug treatments or DMSO vehicle control for two days. […]

PBM-R tumors = test: PBM-R (PARPi-resistant) ovarian tumor burden in syngeneic FVB/NJ mice; assay type: in vivo, mouse; details: for PBM-R tumor growth inhibition: 14 days, olaparib 50 mg/kg i.p. daily, MSA-2 25 mg/kg i.p. three times a week, FIG. 23A
Experimental: The PBM and PBM-R tumor cells were transplanted orthotopically into syngeneic FVB/NJ mice to generated tumors for drug evaluation. Tumor-bearing mice were equivalently divided into control and treatment groups according to the luminescent intensity as previously described (Ding et al., 2018; Cell Rep 25, 2972-2980.e2975). Olaparib (AZD2281) was administered daily by i.p. injection at dose of 50 mg/kg body weight. Anti-PD-1 antibody (clone, 332.8H3) was diluted in PBS (250 μg/100 μl/mouse) and injected by i.p. every 3 days. MSA-2 was prepared by diluting 50 mg/ml stock in DMSO with PBS (pH 8.0) and administered every other day (three times a week, two weeks on followed by one week off) by i.p. injection at dose of 25 mg/kg body weight. The endpoints were determined by tumor burden and ascites.

[2] = olaparib 50 mg/kg i.p. q.d., DMXAA 10 mg/kg intratumoral once per week, 3 doses, start around 100 mm3, FIG. 9A
[3] = BMDMs with BP-CM or BP/OL-CM, DMXAA 0.05 mg/mL, 24 hours, FIG. 7A

SMILES	BP tumor growth (orthotopic BP tumors; [2])	CD86 expression of STING−/− TEMs ([1]; BMDMs from STING knockout mice, DMXAA 2 days, FIG. 7F)	macrophage morphology ([1]; BMDMs incubated with BP-CM, DMXAA 0.05 mg/mL, 24 hours, FIG. 8B)	expression of genes of anti-tumorigenic M1 signature [1, 3]	expression of pro-tumorigenic M2 genes [1, 3]	M1-like to M2-like ratio of TEMs ([1]; BP TEMs, DMXAA 0.05 mg/mL, two days, FIG. 7C)	TEM STING pathway activation (p-TBK1+p-IRF3+) ([1]; BP TEMs, DMXAA 24 hours, FIG. 7D)	PBM-R tumor growth inhibition (PBM-R tumors)	response of PBM-R-shStat3 tumors in vivo (PBM-R tumors; PBM-R cells with STAT3 knockdown, FIG. 19I)	PBM-R tumor response in vivo (PBM-R tumors; orthotopically re-transplanted to syngeneic host mice, FIG. 15E)	BP tumor growth (orthotopic BP tumors; olaparib 50 mg/kg i.p. daily, FIG. 1C)	gene expression of BMDMs (RNA-seq) ([1]; olaparib 5 μM, 24 hours, FIG. 3C)	macrophage polarization (M1-like / M2-like) ([1]; olaparib alone, two days, FIG. 3B)	PBM-R tumor weight (PBM-R tumors; MSA-2 25 mg/kg i.p. three times per week with olaparib 50 mg/kg + anti-PD-1, two weeks, FIG. 14D)
Cc1ccc2c(=O)c3cccc(CC(=O)O)c3oc2c1C [DMXAA, 5,6-dimethyl-xanthenone-4-acetic acid]	modest tumor growth inhibition	failed to increase	changed these cells to a “fried egg” shape	strongly stimulated	suppressed	reversed TEMs to M1-like macrophages	significantly increased	–	–	–	–	–	–	–
O=C(c1cc(Cc2n[nH]c(=O)c3ccccc23)ccc1F)N1CCN(C(=O)C2CC2)CC1 [olaparib]	modest tumor growth inhibition	–	–	–	–	–	–	little or no effect	became sensitive	indeed resistance to PARPi in vivo	modest	no significant direct effects	little effect	–
COc1cc2cc(C(=O)CCC(=O)O)sc2cc1OC [MSA-2]	–	–	–	–	–	–	–	little or no effect	–	–	–	–	–	sensitizes PARPi-resistant tumors to olaparib in vivo
